# Laboratory results: US8318446B2, “DNA-damage-induced proteolysis” (California Institute of Technology, priority 2008, dated 2012)
# Key:
# [1] = test system: IKKα; assay: IKKα kinase assay on IKKα complexes devoid of IKKβ from MESC2.10 neurons; assay type: cell-based, human; conditions: longer treatment with 10 μM etoposide
# Procedure: To determine IKKα activity, lyastes were first depleted of IKKβ complexes using 4 μg of anti-IKKγ and anti-IKKβ antibodies coupled to protein G. The depleted lysates were used to isolate IKKα complexes with 2 μg of anti-IKKα antibody. GST-IκBα was used as a substrate to measure kinase activity. To examine whether IKKs phosphorylate Bcl-xL, 0.5 μg of either IKKα or IKKβ were incubated with 1 μg of full-length Bcl-xL in the presence of 32P-γ-ATP for 30 min at 30° C. GST protein was used as a negative control. All kinase products were examined by SDS-PAGE and autoradiography.
# To determine whether DNA damage influences IKKα activity, IKKα complexes devoid of IKKβ was obtained. Neuronal extracts were depleted by prior incubation with anti-IKKγ and anti-IKKβ antibodies, and IKKα complexes were subsequently immunoprecipitated.
# [2] = test system: endogenous Htt; assay: Etoposide-induced Htt proteolysis in MESC2.10 neurons, Western blotting with anti-Htt mAb 2166; assay type: cell-based, human; conditions: MESC2.10 neurons
# Description: Extracts were examined for Htt by Western blotting. […] Fold changes for full-length Htt levels were obtained by measuring the band intensity in each lane, normalized to tubulin and compared to non-treated control.
# EGFP-lentivirus was used a control (C). […] Second and third panels show staining for Bcl-xL and pro-caspase-3, respectively. IKKγ levels were used as a loading control.
# Neurons were harvested and separated into cytoplasmic and nuclear fractions using the NE-PER kit (PIERCE) according to instructions. For most experiments, ˜120 μg of lysate were used for SDS-PAGE and Western blotting with the indicated antibodies. Reactive bands in Western blots were detected by enhanced chemiluminescence (ECL) using a gel documentation system.
# [3] = target: T1, caspase-3 (Homo sapiens, UniProt P42574); assay type: cell-based; conditions: MESC2.10 neurons, 6 hrs of etoposide treatment, western blot
# T1 construct: Fifty μg of each lysate was incubated with either caspase-3 substrate (DEVD conjugated to p-nitroanaline); endogenous in cells; host or cells: differentiated MESC2.10 human neurons (lysates)
# T1 sequence (P42574 1-277): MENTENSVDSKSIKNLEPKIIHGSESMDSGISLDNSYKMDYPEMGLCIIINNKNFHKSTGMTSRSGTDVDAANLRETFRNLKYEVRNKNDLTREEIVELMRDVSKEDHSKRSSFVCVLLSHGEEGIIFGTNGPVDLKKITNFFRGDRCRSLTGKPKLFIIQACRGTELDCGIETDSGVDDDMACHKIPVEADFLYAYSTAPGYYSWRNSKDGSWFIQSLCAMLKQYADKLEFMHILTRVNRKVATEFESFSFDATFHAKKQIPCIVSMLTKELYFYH
# [4] = test system: caspase-3; assay type: cell-based, human; conditions: etoposide 6 hrs; DEVD-p-nitroanaline substrate; sodium salicylate 5 mg/ml 1 hour prior
# [5] = target: T2, caspase-6 (Homo sapiens, UniProt P55212); assay type: cell-based; conditions: MESC2.10 neurons, 6 hrs of etoposide treatment, western blot
# T2 construct: endogenous in cells; host or cells: differentiated MESC2.10 human neurons (lysates)
# T2 sequence (P55212 1-293): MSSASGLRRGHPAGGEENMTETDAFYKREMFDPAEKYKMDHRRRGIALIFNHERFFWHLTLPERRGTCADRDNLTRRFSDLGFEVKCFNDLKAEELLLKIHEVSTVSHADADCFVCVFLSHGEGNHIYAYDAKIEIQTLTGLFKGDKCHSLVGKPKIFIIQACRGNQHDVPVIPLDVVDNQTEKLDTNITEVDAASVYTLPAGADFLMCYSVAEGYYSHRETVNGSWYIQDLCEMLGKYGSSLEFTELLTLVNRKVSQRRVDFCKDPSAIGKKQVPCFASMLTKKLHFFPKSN
# [6] = test system: caspase-6; assay type: cell-based, human; conditions: etoposide 6 hrs; VEID-p-nitroanaline substrate; sodium salicylate 5 mg/ml 1 hour prior
# [7] = test system: Bcl-xL; assay: Bcl-xL level in extracts of MESC2.10 neurons, Western blotting; assay type: cell-based, human; conditions: MESC2.10 neurons, etoposide 6 hours
# Description: FIG. 6A is a western blot showing the expression of Bcl-XL. Extracts of control and etoposide-treated MESC2.10 neurons were examined for Bcl-xL by Western blotting. […] Fold changes were normalized to the intensity of loading control, and compared to that of untreated control neurons (lane 5).
# [8] = test system: full-length, mutant Htt protein; assay: Etoposide-induced proteolysis of mutant Htt in striatal Hdh^Q111/Q111 neurons; assay type: cell-based, mouse; conditions: 10 μM etoposide for 6 hours
# Description: Processing of samples was as described in FIG. 3A. […] IKKγ was used as loading control.
# [9] = test system: p65 NF-κB; assay: p65 NF-κB binding to consensus DNA oligonucleotides, nuclear extracts of MESC2.10 neurons; assay type: cell-based, human; conditions: etoposide
# Procedure: Lanes 1-4 show p65 binding from nuclear extracts of control and lanes 5-8 show p65 binding from neurons transduced with a lentivirus expressing IKKα (FIG. 3C).
# Wells with mutated NF-κB DNA oligonucleotides were used to ensure specificity of the binding (column 4).
# Nuclear extracts for control or etoposide-treated MESC2.10 neurons were obtained using the cell fractionation kit from pierce according to the instructions provided. Fifty μg of each nuclear extract was incubated for an hour at room temperature on 96 well plates coated with consensus NF-κB oligonucleotides (p65 or p52). Mutated NF-κB oligonucleotides were used to confirm binding specificity. For competition assays, nuclear extracts were pre-incubated with NF-κB oligonucleotides for 1 hour on ice and then added to the coated wells. After washing, each well was incubated with anti-p65 or anti-p52 antibodies for 30 min at 37° C. Wells were washed, followed by incubation with a secondary antibody conjugated to HRP. TMB (3,3′,5,5′-tetramethylbenzidine) was added for 10 min. Binding was measured in a microplate reader at 655 nm.
# [10] = test system: p53; assay: Nuclear p53 in MESC2.10 neurons, western blotting; assay type: cell-based, human; conditions: etoposide
# Description: Nuclear extracts from MESC2.10 neurons were examined for the presence p53 by western blotting. Lanes 1-4 are nuclear extracts from MESC2.10 neurons with EGFP and lanes 5-8 are from neurons that were transduced with IKKα lentiviruses (FIG. 3C). Staining with anti-lamin B1 was used to ensure equal loading (bottom panel).
# [11] = test system: MESC2.10 neurons; assay: BrdU incorporation (cell cycle activation) in MESC2.10 neurons; assay type: cell-based, human; conditions: Day 6 differentiated neurons, 10 μM etoposide 4 hours, BrdU 1 mM
# Procedure: BrdU incorporation was detected described in M&M. Image was captured with a confocal microscope.
# BrdU (1 mM) was added and incubated for additional 2 hours. Cells were fixed in 5% paraformaldehyde followed by permeabilization in 70% methanol in PBS at −20° C. overnight. To denature chromatin, coverslips were immersed in 2 N HCl for 30 minutes at 37° C. and neutralized in 0.1 M borate buffer (pH 8.5) by washing 2 times for 5 minutes. To detect BrdU incorporation, coverslips were incubated with Rat-anti-BrdU (1:200). Anti-Tuj-1 (1:1000) was used to stain neurons. Goat anti rat conjugated to rhodamine and goat anti-mouse conjugated to FITC (1:500) were used as secondary. Pictures were captured with a confocal microscope.
# [12] = test system: IKKα; assay: IKKα protein level in MESC2.10 neurons, western blot; assay type: cell-based, human
# Description: Lysates were first treated with a combination of anti-IKKβ and IKKγ antibodies coupled to agarose beads to deplete IKKγ/IKKβ/IKKα complex. […] Fold changes of IKK activity were quantified by measuring the band intensity using Image J, and compared to non-treated neurons.
# FIG. 3C is a western blot showing IKKα levels in the control and IKKα-expressing neurons. MESC2.10 neuroblasts were transduced with an IKKα recombinant lentivirus and differentiated as described below. EGFP lentivirus was used as a control.
# IKKα was cloned into the lentiviral FUGW vector under the control of a ubiquitin promoter. An EGFP-lentivirus was used as a control. The Bcl-xL cDNA was cloned from MESC2.10 neurons by RT-PCR using standard procedures and its identity confirmed by sequencing. The cDNA was subsequently inserted into FUGW lentiviral vector. The shRNAs for IKKβ were cloned in a lentiviral backbone. Lentiviruses were produced by transfection of 293 cells using calcium phosphate precipitation. Supernatants of virus-producing cells were harvested 48 hr post-transfection and concentrated on Amicon Ultra columns. An EGFP virus was used as a control to monitor viral titer. A multiplicity of infection of 4:1 was used to infect MESC2.10 neuroblasts. Expression of IKKα, Bcl-xL and reduction of IKKβ were determined by Western blotting.
smiles,measurement,setting,value
COc1cc([C@@H]2c3cc4c(cc3[C@@H](O[C@@H]3O[C@@H]5CO[C@@H](C)O[C@H]5[C@H](O)[C@H]3O)[C@H]3COC(=O)[C@H]23)OCO4)cc(OC)c1O [etoposide],IKKα kinase activity after etoposide treatment,[1],reduces IKKα activity
same,"increase of the level of endogenous, full-length Htt","[2]; 10 μM etoposide, early time points",~4 fold
same,time required for maximal Htt proteolysis,[2]; etoposide,~6 h
same,proteolysis of endogenous Htt caused by the agent,[2]; longer exposure to 10 μM etoposide,induces proteolysis of endogenous Htt
same,procaspase-3 level / activation,[3],reduced
same,caspase-3 activity in neuronal extracts,[4],elevated
same,procaspase-6 level / activation,[5],reduced
same,caspase-6 activity in neuronal extracts,[6],elevated
same,level of intact Bcl-xL after etoposide,[7],reduced
same,cleavage of full-length mutant Htt caused by the agent,[8],"promoted cleavage of full-length, mutant Htt protein"
same,p65 NF-κB DNA binding activity,[9],activated p65 NF-κB DNA binding
same,nuclear p53,[10],accumulates in the nucleus
same,cell cycle activation measured by BrdU incorporation,[11],promotes cell cycle activation
same,level of IKKα protein after etoposide treatment,[12],decrease
